The source of these data is US7989449B2, “4,5-dihydro-oxazol-2-yl amine derivatives” (Hoffman-La Roche Inc., priority 2008, dated 2011).

Structures can show the parent of a compound that is named as a salt.

For the assay, the target named is T1, 6his-tagged full length BACE 1 from SF9 cells (Homo sapiens, UniProt P56817).
T1 construct: 6his-tagged full length BACE 1 from SF9 cells; made in house; host or cells: Sf9 insect cells
T1 sequence (P56817 46-501): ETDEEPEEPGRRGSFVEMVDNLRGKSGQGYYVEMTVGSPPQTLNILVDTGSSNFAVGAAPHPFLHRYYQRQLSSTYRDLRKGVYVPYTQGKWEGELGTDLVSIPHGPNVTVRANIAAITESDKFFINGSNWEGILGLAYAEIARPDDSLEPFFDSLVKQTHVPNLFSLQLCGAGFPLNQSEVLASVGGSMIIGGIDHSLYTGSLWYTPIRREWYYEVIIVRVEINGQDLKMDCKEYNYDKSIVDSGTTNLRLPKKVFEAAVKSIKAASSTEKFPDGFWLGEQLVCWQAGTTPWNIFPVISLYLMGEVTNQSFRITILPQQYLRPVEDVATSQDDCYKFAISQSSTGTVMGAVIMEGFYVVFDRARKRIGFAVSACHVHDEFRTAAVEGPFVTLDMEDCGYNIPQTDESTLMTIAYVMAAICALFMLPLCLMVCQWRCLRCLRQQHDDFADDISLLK
The assay can be described thus: BACE1 MR121 protease assay. It counts as biochemical. The conditions noted are these: 30 nM 6his-BACE-1, 300 nM substrate peptide WSEVNLDAEFRC-MR121, Na-acetate pH 4.0, fluorescence. How it is done: Assay plate: 384 well microtiter plate, Corning clear, flat bottom, non binding surface
Assaybuffer: 100 mM Na-acetate pH 4.0, 20 mM EDTA, 0.05% BSA
BACE-1: 6his-tagged full length BACE 1 from SF9 cells
Substrate peptide: WSEVNLDAEFRC-MR121
BACE1 MR121 protease assay
39 μl of a 38 nM 6his-BACE-1 solution in assay buffer (final conc. in the assay: 30 nM) were pipetted into the assay plate. 1 μl of a concentration of a potential inhibitor in dimethylsulfoxide was added to the enzyme and incubated for 10 min. Finally, 10 μl of a 1.5 μM solution of the substrate in assay buffer (final conc. in the assay: 300 nM) was added to start the enzymatic reaction. After strong mixing for 2 min the enzymatic reaction was followed by measuring the fluorescence intensity every two minutes for 15 min on a suitable fluorescence reader. […] The slope was calculated from the linear part of the kinetic as a measure of the activity of BACE-1. A range of concentrations of the potential inhibitor was used to generate data for calculating the concentration of inhibitor resulting in 50% of the effect (e.g. IC50, the concentration of the compound inhibiting the BACE-1 activity by 50%).
In the case of `COc1ccc(C2(c3ccc(F)c(-c4cncnc4)c3)COC(N)=N2)cc1C` (racemic) [Example 19, (RS)-4-(4-Fluoro-3-pyrimidin-5-yl-phenyl)-4-(4-methoxy-3-methyl-phenyl)-4,5-dihydro-oxazol-2-ylamine], 531 nM corresponded to half-maximal inhibition (IC50).

On to `COc1ccc(C2(c3ccc(F)c(-c4cncc(F)c4)c3)COC(N)=N2)cc1C` (racemic) [Example 52, (RS)-4-[4-Fluoro-3-(5-fluoro-pyridin-3-yl)-phenyl]-4-(4-methoxy-3-methyl-phenyl)-4,5-dihydro-oxazol-2-ylamine formate], for which the IC50 was 190 nM.

In turn, `Cc1cc(C2(c3cccc(-c4cncnc4)c3)COC(N)=N2)ccc1OC(F)F` (racemic) [Example 100, (RS)-4-(4-Difluoromethoxy-3-methyl-phenyl)-4-(3-pyrimidin-5-yl-phenyl)-4,5-dihydro-oxazol-2-ylamine formate] showed an IC50 of 120 nM. In turn, `Cc1cc(OC(F)F)ccc1C1(c2cccc(-c3cncc(C#N)c3)c2)COC(N)=N1` (racemic) [Example 200, (RS)-5-{3-[2-Amino-4-(4-difluoromethoxy-2-methyl-phenyl)-4,5-dihydro-oxazol-4-yl]-phenyl}-nicotinonitrile formate] came in with an IC50 of 380 nM. For `NC1=NC(c2ccc(OC(F)F)cc2)(c2cccc(-c3cncnc3)c2)CO1` (racemic) [Example 86, (RS)-4-(4-Difluoromethoxy-phenyl)-4-(3-pyrimidin-5-yl-phenyl)-4,5-dihydro-oxazol-2-ylamine], half-maximal inhibition (IC50) was put at 410 nM. As for `Cc1cc(C2(c3cccc(-c4cnccn4)c3)COC(N)=N2)ccc1OC(F)F` (racemic) [Example 204, (RS)-4-(4-Difluoromethoxy-3-methyl-phenyl)-4-(3-pyrazin-2-yl-phenyl)-4,5-dihydro-oxazol-2-ylamine formate], the figure is 160 nM; as for `COc1ccc(F)c(-c2cc(C3(c4ccc(OC)c(Cl)c4)COC(N)=N3)ccc2F)c1` (racemic) [Example 114, (RS)-4-(3-Chloro-4-methoxy-phenyl)-4-(6,2′-difluoro-5′-methoxy-biphenyl-3-yl)-4,5-dihydro-oxazol-2-ylamine formate], 660 nM.

As for `Cc1cc(C2(c3ccc(F)c(-c4cncc(F)c4)c3)COC(N)=N2)ccc1OC(F)F` (racemic) [Example 122, (RS)-4-(4-Difluoromethoxy-3-methyl-phenyl)-4-[4-fluoro-3-(5-fluoro-pyridin-3-yl)-phenyl]-4,5-dihydro-oxazol-2-ylamine formate], the IC50 was found to be 150 nM.

`COc1cccc(-c2cccc(C3(c4ccc(OC)c(C)c4)COC(N)=N3)c2)c1` (racemic) [Example 43, (RS)-4-(3′-Methoxy-biphenyl-3-yl)-4-(4-methoxy-3-methyl-phenyl)-4,5-dihydro-oxazol-2-ylamine format] registered an IC50 of 680 nM.

Consider `COc1ccc(C2(c3ccc(F)c(-c4cccnc4)c3)COC(N)=N2)cc1C` (racemic) [Example 24, (RS)-4-(4-Fluoro-3-pyridin-3-yl-phenyl)-4-(4-methoxy-3-methyl-phenyl)-4,5-dihydro-oxazol-2-ylamine], for which the IC50 was 290 nM. As for `COc1cncc(-c2cccc(C3(c4ccc(OC(F)F)cc4C)COC(N)=N3)c2)c1` (racemic) [Example 146, (RS)-4-(4-Difluoromethoxy-2-methyl-phenyl)-4-[3-(5-methoxy-pyridin-3-yl)-phenyl]-4,5-dihydro-oxazol-2-ylamine formate], the figure is 200 nM; as for `COc1ccc(C2(c3ccc(F)c(-c4cccnc4F)c3)COC(N)=N2)cc1C` (racemic) [Example 57, (RS)-4-[4-Fluoro-3-(2-fluoro-pyridin-3-yl)-phenyl]-4-(4-methoxy-3-methyl-phenyl)-4,5-dihydro-oxazol-2-ylamine formate], 410 nM; as for `COc1ccc(C2(c3ccc(F)c(-c4cc(C)cnc4F)c3)COC(N)=N2)cc1Cl` (racemic) [Example 113, (RS)-4-(3-Chloro-4-methoxy-phenyl)-4-[4-fluoro-3-(2-fluoro-5-methyl-pyridin-3-yl)-phenyl]-4,5-dihydro-oxazol-2-ylamine], 730 nM. Molecule `CCOc1cc(Nc2ccccc2)cc(C2(c3ccc(OC(F)F)c(C)c3)COC(N)=N2)c1` (racemic) [Example 192] displayed an IC50 of 660 nM. This IC50 and that of the molecule before are within 1.5-fold of each other. `COc1cncc(-c2cccc(C3(c4ccc(OC(F)F)c(Cl)c4)COC(N)=N3)c2)c1` (racemic) [Example 117, (RS)-4-(3-Chloro-4-difluoromethoxy-phenyl)-4-[3-(5-methoxy-pyridin-3-yl)-phenyl]-4,5-dihydro-oxazol-2-ylamine formate] returned an IC50 of 80 nM. Regarding `COCCc1cc(Nc2ccccc2)cc(C2(c3ccc(OC)c(C)c3)COC(N)=N2)c1` (racemic) [Example 197, (RS)-4-[3-(2-Methoxy-ethyl)-5-phenylamino-phenyl]-4-(4-methoxy-3-methyl-phenyl)-4,5-dihydro-oxazol-2-ylamine], the IC50 stood at 530 nM. `Cc1cc(C2(c3cccc(-c4cncc(C#N)c4)c3)COC(N)=N2)ccc1OC(F)F` (racemic) [Example 203, (RS)-5-{3-[2-Amino-4-(4-difluoromethoxy-3-methyl-phenyl)-4,5-dihydro-oxazol-4-yl]-phenyl}-nicotinonitrile formate] showed an IC50 of 110 nM. Take `COc1cncc(-c2cc(C3(c4ccc(OC)c(C)c4)COC(N)=N3)ccc2F)c1` (racemic) [Example 51, (RS)-4-[4-Fluoro-3-(5-methoxy-pyridin-3-yl)-phenyl]-4-(4-methoxy-3-methyl-phenyl)-4,5-dihydro-oxazol-2-ylamine formate]: inhibition was half-maximal at 120 nM (IC50).

Molecule `CCOc1ccc(C2(c3cccc(-c4cncc(F)c4)c3)COC(N)=N2)cc1C` (racemic) [Example 75, (RS)-4-(4-Ethoxy-3-methyl-phenyl)-4-[3-(5-fluoro-pyridin-3-yl)-phenyl]-4,5-dihydro-oxazol-2-ylamine formate] had a 50% inhibitory concentration (IC50) of 440 nM. The same measure for `Cc1cc(OC(F)F)ccc1C1(c2cccc(-c3cncc(F)c3)c2)COC(N)=N1` (racemic) [Example 145, (RS)-4-(4-Difluoromethoxy-2-methyl-phenyl)-4-[3-(5-fluoro-pyridin-3-yl)-phenyl]-4,5-dihydro-oxazol-2-ylamine formate]: 720 nM; for `NC1=NC(c2cccc(-c3cncc(Cl)c3)c2)(c2ccc(OC(F)F)c(F)c2)CO1` (racemic) [Example 115, (RS)-4-[3-(5-Chloro-pyridin-3-yl)-phenyl]-4-(4-difluoromethoxy-3-fluoro-phenyl)-4,5-dihydro-oxazol-2-ylamine formate]: 240 nM; for `CCOc1ccc(C2(c3cccc(-c4cncnc4)c3)COC(N)=N2)cc1C` (racemic) [Example 67, (RS)-4-(4-Ethoxy-3-methyl-phenyl)-4-(3-pyrimidin-5-yl-phenyl)-4,5-dihydro-oxazol-2-ylamine formate]: 890 nM.

The molecule `COc1cncc(-c2cccc(C3(c4ccc(OC)c(F)c4)COC(N)=N3)c2)c1` (racemic) [Example 92, (RS)-4-(3-Fluoro-4-methoxy-phenyl)-4-[3-(5-methoxy-pyridin-3-yl)-phenyl]-4,5-dihydro-oxazol-2-ylamine formate] returned an IC50 of 750 nM. The IC50 values of the last two molecules are within 1.5-fold of each other.

On to `Cc1cc([C@]2(c3cccc(-c4cncc(Cl)c4)c3)COC(N)=N2)ccc1OC(F)F` [Example 94A, (R)-4-[3-(5-Chloro-pyridin-3-yl)-phenyl]-4-(4-difluoromethoxy-3-methyl-phenyl)-4,5-dihydro-oxazol-2-ylamine], for which the IC50 amounted to 40 nM. As for `COc1ccc(C2(c3cccc(-c4cncnc4)c3)COC(N)=N2)cc1Cl` (racemic) [Example 73, (RS)-4-(3-Chloro-4-methoxy-phenyl)-4-(3-pyrimidin-5-yl-phenyl)-4,5-dihydro-oxazol-2-ylamine], the figure is 840 nM. As for `COc1cncc(-c2cccc(C3(c4ccc(OC)c(C(F)(F)F)c4)COC(N)=N3)c2)c1` (racemic) [Example 150, formate], the figure is 330 nM. As for `CCOCc1cc(Nc2ccccc2)cc(C2(c3ccc(OC(F)F)c(C)c3)COC(N)=N2)c1` (racemic) [Example 193, (RS)-4-(4-Difluoromethoxy-3-methyl-phenyl)-4-(3-ethoxymethyl-5-phenylamino-phenyl)-4,5-dihydro-oxazol-2-ylamine], the figure is 80 nM; as for `Cc1cc(C2(c3cccc(-c4cccnc4)c3)COC(N)=N2)ccc1OC(F)F` (racemic) [Example 97, (RS)-4-(4-Difluoromethoxy-3-methyl-phenyl)-4-(3-pyridin-3-yl-phenyl)-4,5-dihydro-oxazol-2-ylamine formate], 120 nM.

For `Cc1cc(C2(c3ccc(F)c(-c4cncnc4)c3)COC(N)=N2)ccc1OC(F)F` (racemic) [Example 120, (RS)-4-(4-Difluoromethoxy-3-methyl-phenyl)-4-(4-fluoro-3-pyrimidin-5-yl-phenyl)-4,5-dihydro-oxazol-2-ylamine formate], it took 90 nM to reach half-maximal inhibition (IC50). For `COc1cccc(-c2cc(C3(c4ccc(OC)c(C)c4)COC(N)=N3)ccc2F)c1` (racemic) [Example 21, (RS)-4-(6-Fluoro-3′-methoxy-biphenyl-3-yl)-4-(4-methoxy-3-methyl-phenyl)-4,5-dihydro-oxazol-2-ylamine formate], the IC50 was 794 nM. This IC50 lies about 8.8-fold higher than the previous one.
